Laboratory results published in PubChem BioAssay (NCI).
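Dose response: 5 concentrations. Exposure: 48 h. Format: 96-well plates. Endpoint: linear interpolation; highest concentration if not reached. GI50 is the concentration that inhibits growth by half. TGI is the concentration that stops growth completely.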 Where a SMILES comes first, the peptide text is derived from it. The star is where a group is joined. Trt = c1ccc(C(c2ccccc2)(c2ccccc2)*)cc1; Cbz = O=C(OCc1ccccc1)*

Columns and labels:
Assay in all cases: NCI anticancer screen, dose series, 48 h
MCF7 breast = system: MCF7 breast
NCI/ADR-RES ovarian = system: NCI/ADR-RES ovarian
K-562 leukemia = system: K-562 leukemia
EKVX NSCLC = system: EKVX NSCLC
HCT-116 colon = system: HCT-116 colon
IGROV1 ovarian = system: IGROV1 ovarian
MALME-3M melanoma = system: MALME-3M melanoma
M14 melanoma = system: M14 melanoma
SK-OV-3 ovarian = system: SK-OV-3 ovarian
RPMI-8226 leukemia = system: RPMI-8226 leukemia

SMILES	GI50 (MCF7 breast) [µM]	TGI (MCF7 breast) [µM]	GI50 (NCI/ADR-RES ovarian) [µM]	TGI (NCI/ADR-RES ovarian) [µM]	GI50 (K-562 leukemia) [µM]	TGI (K-562 leukemia) [µM]	GI50 (EKVX NSCLC) [µM]	TGI (EKVX NSCLC) [µM]	GI50 (HCT-116 colon) [µM]	TGI (HCT-116 colon) [µM]	GI50 (IGROV1 ovarian) [µM]	TGI (IGROV1 ovarian) [µM]	GI50 (MALME-3M melanoma) [µM]	TGI (MALME-3M melanoma) [µM]	GI50 (M14 melanoma) [µM]	TGI (M14 melanoma) [µM]	GI50 (SK-OV-3 ovarian) [µM]	TGI (SK-OV-3 ovarian) [µM]	GI50 (RPMI-8226 leukemia) [µM]	TGI (RPMI-8226 leukemia) [µM]
CC1CC2C3CCC4=CC(=O)C=CC4(C)C3(F)C(O)CC2(C)C1(O)C(=O)COP(=O)(O)O (centres undefined)	> 500	> 500	> 500	> 500	> 500	> 500	> 500	> 500	> 500	> 500	> 500	> 500	> 500	> 500	> 500	> 500	> 500	> 500	16.6	> 500
C#Cc1cccc(Nc2ncnc3cc(NC(=O)CCl)ccc23)c1	0.961	4.73	4.65	17.2	0.802	25	2.5	7.01	1.19	4.15	1.43	6.84	2.8	6.65	2.56	6.4	3.5	11.5	1.26	6.15
CCOC(=O)[C@@H](C)C[C@H](Cc1ccccc1)NC(=O)c1csc([C@@H](C[C@H](C(C)C)N(C)C(=O)[C@@H](NC(=O)[C@H]2CCCCN2C)C(C)(C)CC)OC(C)=O)n1	< 0.00167	> 16.7	0.00891		< 0.00167	> 16.7	0.00232	> 16.7	< 0.00167	3.02	0.0021	> 16.7	< 0.00167	3.68	< 0.00167	1.8	< 0.00167	> 16.7	< 0.00167	4.18
COc1ccc(-c2cc(-c3ccc(Nc4nc(Nc5ccccc5)nc(Nc5ccc(Cl)cc5)n4)cc3)nc(N)n2)cc1	5.34	21	37.4	> 50	4.63	16.5	6.55	> 50	6.74	16.8	6.27	28.2	15.2	> 50	9.33	28.8	22.7	> 50	5.15	20.5
Oc1ccc(Cl)cc1C(c1cc(Cl)ccc1O)C(Cl)(Cl)Cl	2.42	6.65	1.99	4.67	2.28	5.59	1.84	5.8	1.56	2.97	1.63	5.67	1.5	3.91	1.78	3.62	2.94	9.76	2.72	8.4
O=C1CC2OCC=C3CN4CCC56c7ccccc7N1C5C2C3CC46O (centres undefined)		> 100		> 100		> 100		> 100		> 100		> 100		> 100		> 100		> 100		> 100
COc1cc(CNCCCCCCN2C(=O)c3cccc4cccc(c34)C2=O)ccc1O	1.74	3.45	10.4	32.9	2.91	11	13.1	29.8	3.14	11.2	3.72	16.2	2.02	4.63	1.97	3.85	12.3	24.8	2.63	7.19
NS(=O)(=O)c1ccc(Nc2cc(-c3ccc(O)c(F)c3)[nH]n2)cc1	> 25	> 25	> 25	> 25	> 25	> 25	> 25	> 25	> 25	> 25	> 25	> 25	> 23.2	> 25	15.4	> 25	> 25	> 25	> 25	> 25
COc1cccc2c1-c1nc(N)c3c(OC)cccc3c1C2=O		> 100		> 100		> 100		> 100		> 100		> 100		> 100		> 100		> 100		> 100
C/C(=N\O)c1ccc2ccc3ccccc3c2c1		> 100		85.3		93		> 100		> 100		> 100		50.5		> 100		> 100		> 100
O=C(Nc1ccc(Oc2ccc(F)cc2)cc1)[C@@H]1C[C@@H](Cc2ccc(F)cc2)CN1C(=O)Cn1ccnn1	3.74	17.5	12.1	52.5	5.61	> 65	7.79	40.4	4.79	17.3	8	28.2	9.49	26.1	8.54	25.7	19.5	> 75.7	3.74	26.4
CN(C)c1ccc(/C=C\c2ccnc3ccccc23)cc1	0.328	10.9	2.93	> 58.5	> 21.1	> 100	2.63	> 37.9	5.34	> 52.6	8.85	> 100	17.7	> 89.2	4.42	> 66	5.25	> 100	4.02	> 85
Cc1cc(=O)oc2ccc(OC/C=C3\CCC(=O)O3)cc12	2.36	13.3	13.7	32.4	7.79	> 100	18.7	45.6	3.82	15.1	3.3	16.4	1.16	16.9	1.75	5.37	13.1	26.2	1.81	11.2
O=C1/C(=C/c2ccc(Cl)c(Cl)c2)CN(C(=O)C(Cl)Cl)C/C1=C\c1ccc(Cl)c(Cl)c1	0.037	1.37	0.107	> 100	0.0369	> 36.2	0.223	0.757	0.0315	0.12	0.103	0.306	0.237	0.669	0.206	0.587	0.558	1.82	0.0285	0.485
CC(C)=CCc1cc2c(cc1O)C1=C(C(=O)C3=C(C1=O)S(=O)(=O)CCN3)C(C=C(C)C)O2 (centres undefined)	0.354	1.31	6.66	16.7	2.24	14.6	1.55	6.93	0.474	1.77	0.959	4.76	0.122	0.397	0.35	1.2	2.98	5.54	3.38	10.1
COC(=O)C(CO)NC(=O)C(CSC(c1ccccc1)(c1ccccc1)c1ccccc1)NC(=O)OCc1ccccc1 (centres undefined) (Cbz-Cys(Trt)-Ser-OMe; configuration not given here)		> 59.1		49.5		> 49		41.1		42.1		37.3		28.5		44		> 90.1		5.55
COc1cc(/C=C2\C(=O)N(Cc3ccc(Cl)cc3)c3ccccc32)cc(OC)c1OC	2.97	> 61.7	2.85	9.96	2.78	16.4	4.15	34.6	1.68	3.19	2.73	10.3	3.73	16.3	2.45	7.01	6.82	> 89.4	0.645	2.39
